The METLIN SMRT retention time set (Domingo-Almenara et al. 2019)

Experiment: gradient 5% acetonitrile 3 min, to 50% in 2 min, to 85% in 15 min, held 3 min, 100 µL/min
Conditions: column: Zorbax Extend-C18 2.1 x 50 mm; eluents: water / acetonitrile, 0.1% formic acid
How it was run: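 Values are retention times taken from adduct peaks that software picked and an analyst inspected. The pure standards were run as mixtures of ~100 molecules on HPLC linked to a quadrupole time-of-flight mass spectrometer, in positive and negative ionization mode. A Zorbax Extend-C18 column (2.1 × 50 mm, 1.8 μm) was used at 100 μL/min with water and acetonitrile, each including 0.1% formic acid.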

## O=C(NC(c1ccccc1)c1nnc(-c2ccccc2)o1)c1ccco1 (configuration not stated)
  RP-LC retention time: 876 s

## COc1ccc(OC)c(-c2cc(C(=O)N3CCN(Cc4ccsc4)CC3)n(C)n2)c1
  RP-LC retention time: 580 s

## CS(=O)(=O)N1CCCc2ccc(NC(=O)c3ccc4nsnc4c3)cc21
  RP-LC retention time: 786 s

## COc1ccc(-c2cnn3c(C)cc(C)nc23)cc1S(=O)(=O)N1CCN(C2CCCCC2)CC1
  RP-LC retention time: 690 s

## CCS(=O)(=O)c1nc2ccc(NS(=O)(=O)c3cc(OC)ccc3OC)cc2s1
  RP-LC retention time: 833 s

## O=C(Cn1c(=O)c2cccn2c2ccc(F)cc21)NCc1cccs1
  RP-LC retention time: 785 s

## COc1ccc(NC(=O)Cn2nc3nc(Nc4ccc(F)cc4)ccn3c2=O)cc1Cl
  RP-LC retention time: 718 s

## CCOCCCNC(=O)c1c2c(cn(-c3ccc(F)cc3)c1=O)C(=O)CC(C)(C)C2
  RP-LC retention time: 859 s

## CCCCN(C)C(=O)Cn1ccn2nc(-c3ccccc3)c(CO)c2c1=O
  RP-LC retention time: 776 s

## CN(c1ccc(F)cc1)S(=O)(=O)N1CCCC(C(=O)NCCc2c[nH]c3ccccc23)C1 (configuration not stated)
  RP-LC retention time: 932 s

## COc1ccc(NC(=O)C2(C)Oc3cccnc3NC2=O)cc1OC (configuration not stated)
  RP-LC retention time: 651 s

## Cc1ccn2cc(-c3ccc(NC(=O)CCC4CCCCC4)cc3)nc2n1
  RP-LC retention time: 761 s

## CCNC(=O)CCc1nc2ccccc2n(CC(=O)NCc2cccc(OC)c2OC)c1=O
  RP-LC retention time: 1110 s

## Cc1nc(-c2ccc(F)cc2)sc1C(=O)N1CCC(CC(=O)N(C)Cc2ccco2)CC1
  RP-LC retention time: 890 s

## O=C1COc2ccccc2N1Cc1nc(-c2ccc(F)c(Cl)c2)no1
  RP-LC retention time: 1090 s

## CCc1ccc(-n2nc(CO)c(C(=O)NC3CC3)n2)cc1
  RP-LC retention time: 897 s

## CC(CCc1ccccc1)NC(=O)c1ccc(-n2cccn2)nc1 (configuration not stated)
  RP-LC retention time: 858 s

## Cc1ccccc1C(C(=O)NC1CCCCC1)N(C(=O)Cn1ccnc1C)c1cccc(F)c1 (configuration not stated)
  RP-LC retention time: 895 s

## COc1ccc(NC(=O)N2[C@H]3CC[C@@H]2c2cncnc2C3)cc1OC
  RP-LC retention time: 839 s

## O=C(Cc1cn(Cc2ccc(F)cc2)c2ccccc12)N1CCN(C(=O)c2ccco2)CC1
  RP-LC retention time: 803 s

## c1csc(-c2nc(-c3ccc4c(c3)ncn4CCN3CCCCC3)no2)c1
  RP-LC retention time: 626 s

## CCn1cc(S(=O)(=O)N2C[C@@H](C(N)=O)[C@H](c3n[nH]c(C)n3)C2)cn1
  RP-LC retention time: 576 s

## CCc1ccccc1NC(=O)Cn1c(=O)cc(-c2nc(C3CC3)no2)c2ccccc21
  RP-LC retention time: 990 s

## CCN(CC)S(=O)(=O)c1ccc2c(c1)cc(C(=O)NCCCN1CCCCC1C)n2C (configuration not stated)
  RP-LC retention time: 679 s

## COc1ccc(-c2nc3cnccn3c2Nc2cccc(C)c2C)cc1OC
  RP-LC retention time: 838 s

## CC(C)CCNC(=O)C1CCN(c2nc3ccc(-c4cncnc4)nc3s2)CC1
  RP-LC retention time: 824 s

## CCN(CCCNC(=O)C1CCN(c2ncnc3c2oc2ccccc23)CC1)c1ccccc1
  RP-LC retention time: 611 s

## Cc1ccc(NC(=O)c2nc3ccccc3[nH]c2=O)c(C)c1
  RP-LC retention time: 778 s

## CC(=O)Nc1ccc(NC(=O)c2cc3sc(C)c(CN4CCCCC4)c3[nH]2)cc1
  RP-LC retention time: 609 s

## Cc1c(C(=O)N2CCSCC2)cnn1-c1cc(-c2nc(C(C)C)no2)ccn1
  RP-LC retention time: 974 s

## COc1ccc(NC(=O)CSc2nccnc2Sc2ccc(C)cc2)cc1OC
  RP-LC retention time: 997 s

## COc1ccc(NC(=O)C2CCCN2S(=O)(=O)c2ccc3c(c2)CCCC(=O)N3)cc1Cl (configuration not stated)
  RP-LC retention time: 787 s

## Cc1c(-c2noc(C(=O)NCCN(C)C)n2)oc2c(C)cccc12
  RP-LC retention time: 676 s

## CCC(=O)Nc1ccc2nc(N3CCN(CC(=O)Nc4c(C)cccc4C)CC3)cc(C(=O)O)c2c1
  RP-LC retention time: 594 s

## Cc1csc(-c2cc(S(=O)(=O)NCC3CC3)cn2CC(=O)N2CCCCC2)n1
  RP-LC retention time: 905 s

## Cc1sc(NC(=O)c2ccccc2)c(CN(C)C)c1C
  RP-LC retention time: 625 s

## NC(=O)C1CCN(C(=O)CN2c3ccccc3NC3=C(C(=O)CCC3)C2c2cccs2)CC1 (configuration not stated)
  RP-LC retention time: 630 s

## Cc1ccc(-n2ccnc2SCc2nc(-c3cccc(F)c3)no2)cc1
  RP-LC retention time: 971 s

## COc1cc(OC)cc(C(=O)Nc2ccc3c(c2)Sc2ncccc2C(=O)N3C)c1
  RP-LC retention time: 858 s

## Cc1cnc(-c2ccncc2)n1C1CCN(S(=O)(=O)c2ccc3c(c2)CCC3)C1 (configuration not stated)
  RP-LC retention time: 605 s

## CCn1c(C(=O)NCCCN2CCCC(C)C2)cc2cc(S(=O)(=O)N(C)C)ccc21 (configuration not stated)
  RP-LC retention time: 677 s

## Cc1oc(-c2ccccc2)nc1CN1C(=O)C(O)(c2cccc(F)c2)c2ccccc21 (configuration not stated)
  RP-LC retention time: 1100 s

## CCC(C)NC(=O)Cc1c[nH]c2ncccc12 (configuration not stated)
  RP-LC retention time: 562 s

## COCCCNC(=O)C1CCC(=O)N(c2ccc(OC)cc2)C1c1ccc(F)cc1 (configuration not stated)
  RP-LC retention time: 609 s

## CCC(C)NC(=O)c1cc2c(s1)CCN(C(=O)c1ccc(F)cc1)C2 (configuration not stated)
  RP-LC retention time: 804 s

## CCOc1ccc(CN2C[C@@H]3C(=O)N(Cc4ccc5c(c4)OCO5)C(=O)[C@@H]3C2)cc1
  RP-LC retention time: 658 s

## Cc1ncoc1C(=O)N1CCC(C2CCN(S(C)(=O)=O)CC2)C1 (configuration not stated)
  RP-LC retention time: 642 s

## CCOc1cc(C(=O)Nc2cc(-c3cn4cccnc4n3)ccc2C)cc(OCC)c1OCC
  RP-LC retention time: 780 s

## CCc1nccn1Cc1nc(-c2ccc(Br)cc2)no1
  RP-LC retention time: 677 s

## COc1ccc(NC(=O)N2CCCC2c2nc(-c3ccccc3OC)no2)c(OC)c1 (configuration not stated)
  RP-LC retention time: 871 s

## Cc1nn(C)c2c(=O)n(C(C)C(=O)NCc3ccc4c(c3)OCO4)ccc12 (configuration not stated)
  RP-LC retention time: 715 s

## CN(Cc1ccccc1)C(=O)c1ccc2c(c1)N(Cc1ccccc1)C(=O)CO2
  RP-LC retention time: 878 s

## COc1cccc(Cn2c(=O)c3sccc3n(Cc3nc(-c4ccccc4Cl)no3)c2=O)c1
  RP-LC retention time: 1080 s

## O=C(COc1ccc(Cl)cc1)Nc1ccc2c(c1)N(C(=O)c1ccco1)CCC2
  RP-LC retention time: 948 s

## CC(C)C[C@H](NC(=O)C1OC1C(=O)O)C(=O)NCCCCN=C(N)N (some centres not stated)
  RP-LC retention time: 591 s

## Cc1sc(NC(=O)Cc2csc(-c3ccccc3)n2)nc1-c1ccc(F)cc1
  RP-LC retention time: 1200 s

## COc1ccc(C(=O)N2C[C@@H]3C[C@H](NC(=O)c4cccs4)[C@H]2C3)cn1
  RP-LC retention time: 679 s

## c1cnn(-c2cc(N3CCCC3)ncn2)c1
  RP-LC retention time: 678 s

## CCc1ccc(NC(=O)COc2cc(C)nc(N3CCN(c4ccccc4)CC3)n2)cc1
  RP-LC retention time: 885 s

## CCc1ccc(NC(=O)C2CCCN(c3ccc(=O)n(-c4cccc(Cl)c4)n3)C2)cc1 (configuration not stated)
  RP-LC retention time: 922 s

## CSc1cccc(NC(=O)N2CCC(n3c(C)nc4cccnc43)CC2)c1
  RP-LC retention time: 647 s

## CC(=O)N[C@@H](Cc1c[nH]c2ccccc12)C(=O)OCc1cc(C(F)(F)F)cc(C(F)(F)F)c1
  RP-LC retention time: 1100 s

## Cc1ccc(CNS(=O)(=O)c2cc(-c3[nH]ncc3C(=O)N3CCCC3)oc2C)cc1C
  RP-LC retention time: 768 s

## CC(C)Cn1ccc2c(cc(C(=O)Nc3ccc(C(C)C)cc3)n2C)c1=O
  RP-LC retention time: 1030 s

## COc1ccc(-c2cc(C(=O)N3CCCC3c3c(C)noc3C)on2)cc1 (configuration not stated)
  RP-LC retention time: 856 s

## Cc1ccc(-n2nc(CO)c(C(=O)NC3CC3)n2)cc1C
  RP-LC retention time: 890 s

## CCOC(=O)O[C@]1(C(=O)OCCl)CC[C@H]2[C@@H]3CCC4=CC(=O)C=C[C@]4(C)[C@H]3[C@@H](O)C[C@@]21C
  RP-LC retention time: 1150 s

## COc1ccc(OC)c(NC(=O)Cn2cccc2-c2nnc(C3CC3)o2)c1
  RP-LC retention time: 704 s

## CN(C)C(=O)c1ccc2c(c1)nnn2CCNC(=O)Nc1ccccc1Br
  RP-LC retention time: 675 s

## COc1ccc2[nH]c(=O)c(CCC(=O)N(C)CCc3ccccn3)cc2c1
  RP-LC retention time: 578 s

## CCOc1nc2ccccc2nc1N1CCCC(C(=O)Nc2ccccc2F)C1 (configuration not stated)
  RP-LC retention time: 1200 s

## COc1ccc(-c2cn3c(CC(=O)N4CCCc5ccccc54)csc3n2)cc1OC
  RP-LC retention time: 775 s

## O=C(NCc1ccc(F)cc1F)c1csc(C(=O)NC2CC2)n1
  RP-LC retention time: 789 s

## CCC(=O)NCc1nc(-c2ccccc2Cl)no1
  RP-LC retention time: 717 s

## COc1ccc(NC(=O)Cn2cnc3c(sc4nc(-c5ccccc5)ccc43)c2=O)c(OC)c1
  RP-LC retention time: 991 s

## Fc1ccc(-c2noc(-c3ccc(NCCN4CCOCC4)nc3)n2)cc1
  RP-LC retention time: 687 s

## CCN1CCC(N(Cc2cccs2)C(=O)Nc2cccc(Br)c2)CC1
  RP-LC retention time: 693 s

## O=C(Cc1cccs1)Nc1cccn2nc(C3CCC3)nc12
  RP-LC retention time: 889 s

## C=CCn1c(C)c(CC(=O)Nc2ccc(F)c(F)c2)c(=O)n2nc(-c3ccc(C)cc3)nc12
  RP-LC retention time: 838 s

## O=C(NCc1ccccc1Cl)C1COCC(=O)N1Cc1ccccc1 (configuration not stated)
  RP-LC retention time: 724 s

## Cc1ccn2cc(-c3ccc(NC(=O)c4ccc(Br)o4)cc3)nc2n1
  RP-LC retention time: 647 s

## Cc1cc(N(C)C)n2ncc(-c3ccc(Cl)cc3)c2n1
  RP-LC retention time: 889 s

## CN1c2cc(F)ccc2C(=O)NC12CCN(C(=O)c1cc(F)cc(F)c1)CC2
  RP-LC retention time: 793 s

## CC(C)NC(=O)Cn1cccc(-c2nc(-c3ccc(Cl)cc3)no2)c1=O
  RP-LC retention time: 807 s

## CN1CCn2cc(S(=O)(=O)Nc3ccc(F)cc3Cl)cc2C1=O
  RP-LC retention time: 690 s

## O=C(Cc1ccccc1)NC(c1ccccc1)c1ccc2cccnc2c1O (configuration not stated)
  RP-LC retention time: 822 s

## CCn1ccc2c(cc(C(=O)Nc3cc(F)ccc3F)n2C)c1=O
  RP-LC retention time: 754 s
